Molecular target: 3-phosphoinositide-dependent protein kinase 1 (Homo sapiens) (UniProt O15530)
Experiment: Inhibition of recombinant PDK1 (unknown origin)

IC50: > 10 µM
Compound: COc1cc2ncnc(Nc3ccc(F)c(Cl)c3)c2cc1NC(=O)/C=C/CN1CCCCC1 [DACOMITINIB]

Reference: BindingDB's records for PubMed 18089823 (Harvard Medical School)
